Reference: patent publication US7563461B2, “Zinc salt compositions for the prevention of dermal and mucosal irritation” (The Trustees of Columbia University in the City of New York, priority 2002, dated 2009)

Columns and labels:
vaginal mucosa = assay: Nonoxynol-9-induced irritation of vaginal mucosa in a rabbit model; conditions: gel-based lubricant containing 9% nonoxynol-9, rabbits
Source text: This animal model was used to evaluate the anti-irritant efficacy of various zinc salt compositions in vivo.
Two ml of the zinc salt lubricant compositions indicated in Table 3 was instilled into the vagina of each rabbit daily for five consecutive days. At the end of this period, a veterinary pathologist evaluated each animal both macroscopically and microhistopathologically and scored the degree of vaginal irritation that was present. Irritation was quantified as follows: 0=No irritation, 1-4=Minimal Irritant, 5-8=Mild Irritation, 9-11=Moderate Irritation, 12-16=Severe Irritation.

[1] = cited from earlier work

Substance	irritation of the vaginal mucosa (vaginal mucosa)	water solubility (in words) [1]
nonoxynol-9	mild to moderate irritation	
zinc picolinate		moderately water soluble
